Experimental data reported in paper PMC3598914, “In Vivo Detection of Human TRPV6-Rich Tumors with Anti-Cancer Peptides Derived from Soricidin” (PLoS ONE, 2013).
Entries after “also recorded” stand apart in the source; their conditions may differ. Residues, ends and D or L forms follow the SMILES beside them.

How the values were obtained:
[1] = biological target: T1, human TRPV6 channels (Homo sapiens, UniProt Q9H1D0); assay: whole-cell patch clamp of TRPV6/EGFP transfected HEK-293 cells; assay type: cell-based; conditions: for reduction of TRPV6 current amplitude / reduction of maximum TRPV6 current amplitude: p<0.05; for Kd: washout not possible under voltage ramp stimulation, Kd estimated, read-out: K1 (Kd estimated to be equal to K1); for reduction of maximum TRPV6 current amplitude: n = 5, successive exposures
T1 construct: containing cDNA for the protein-coding region of TRPV6; expressed in transfected cells; host or cells: HEK-293 cells transiently transfected with pdi-CaT-L (pCAGGS backbone, gift of V. Flockerzi)
T1 sequence (Q9H1D0 41-765 limits assumed): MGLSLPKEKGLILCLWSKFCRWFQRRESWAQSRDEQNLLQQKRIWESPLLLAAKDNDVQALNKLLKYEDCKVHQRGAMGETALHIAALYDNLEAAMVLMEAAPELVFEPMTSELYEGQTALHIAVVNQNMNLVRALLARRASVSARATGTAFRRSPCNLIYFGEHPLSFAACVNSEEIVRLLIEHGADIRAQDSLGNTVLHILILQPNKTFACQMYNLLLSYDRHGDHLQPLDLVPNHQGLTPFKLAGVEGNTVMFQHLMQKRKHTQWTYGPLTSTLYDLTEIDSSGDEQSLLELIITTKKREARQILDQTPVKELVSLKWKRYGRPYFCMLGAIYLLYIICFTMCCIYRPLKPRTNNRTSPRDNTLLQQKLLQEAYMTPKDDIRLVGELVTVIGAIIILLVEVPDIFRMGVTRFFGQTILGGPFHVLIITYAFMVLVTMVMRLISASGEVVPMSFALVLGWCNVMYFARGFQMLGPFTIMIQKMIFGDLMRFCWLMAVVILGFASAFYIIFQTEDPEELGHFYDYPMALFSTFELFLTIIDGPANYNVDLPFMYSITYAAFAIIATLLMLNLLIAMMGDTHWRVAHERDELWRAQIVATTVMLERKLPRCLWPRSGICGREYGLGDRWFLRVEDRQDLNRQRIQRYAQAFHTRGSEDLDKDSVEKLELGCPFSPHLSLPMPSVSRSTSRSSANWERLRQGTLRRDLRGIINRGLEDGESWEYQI
Description: Human HEK-293 cells (6–9 passages) were plated in a 24-well plate at a density of 5×10^5 cells per well, 24 hours before transfection. Each well was diluted in serum-free medium and incubated for 5 minutes at room temperature then combined slowly and incubated at room temperature. After a 20 minute incubation, cells were exposed to the transfection complex consisting of 0.5 µg of pdi-CaT-L plasmid DNA (a gift from Dr. V. Flockerzi, Experimentelle und Klinische Pharmakologie und Toxikologie der Universität des Saarlandes) and 1.5 µl lipofectamine 2000 reagent. pdi-CaT-L is a bicistronic expression vector containing cDNA for the protein-coding region of TRPV6 and the mutated Green Fluorescent Protein (S65T; EGPF) separated by an […] (β-actin promoter /KOZAK/TRPV6/IRES/EGFP in pCAGGS). The IRES was derived from encephalomyocarditis virus. Transfection of HEK-293 cells with the bicistronic vector allows for simultaneous production of TRPV6 and EGFP and selection of fluorescent cells producing TRPV6 for the electrophysiology measurements. From previous investigations using this plasmid and other similar plasmids, it was determined that the TRPV6 channel is highly expressed, localized at the membrane surface, glycosylated and constitutively active giving rise to a Ca^2+-invoked inward current [33]–[35].
Whole-cell patch clamp recordings were performed on HEK-293 cells expressing TRPV6 and EGFP. Transfected cells were readily identified from non-transfected cells using a fluorescent Axiovert 135 microscope […]. The recordings were performed using an Axopatch 1D amplifier controlled and monitored using pClamp 9 software (MDS Analytical Technologies, Sunnyvale, CA, USA). Data sets were digitized at 20 kHz and filtered at 2 kHz. […] The extracellular solution contained: 145 mM NaCl, 10 mM CsCl, 10 mM CaCl2, 2 mM MgCl2, 2.8 mM KCl, 10 mM HEPES and 10 mM glucose with pH adjusted to 7.2 using NaOH.
To isolate TRPV6 currents, HEK-293 and transfected HEK-293 cells were voltage-clamped at +50 mV with a 50 ms linear voltage ramp (−110 mV to +90 mV) protocol applied in the presence or absence of a TRPV6 inhibitor, La^3+ ions (10 µM), SOR-C27, SOR-C13 or SOR-C27-Cy5.5. Although the La^3+ ion is a non-specific inhibitor there is currently no known selective inhibitor of the TRPV6 channel. The ramp was averaged over 10 times at 2 s intervals between ramps.
Analysis was performed off-line using IGOR (WaveMetrics Inc., Lake Oswego, OR, USA) software. The statistical significance was determined with paired Students' t-test (two-tailed). All values are expressed as mean ± SEM with a p-value of <0.05 considered significant.

[2] = solubility in NMR samples; assay type: physicochemical; conditions: 10 mM in 90/10 H2O/D2O, 50 mM potassium phosphate pH 6.6; with 200 mM NaCl; with 100 mM DPC; 2 mM with 100 mM SDS; visual statement, 274 to 308 K
Description: Nuclear magnetic resonance (NMR) spectroscopic data was acquired to determine the conformational structural features of the SOR-C27 peptide under various conditions. A stock solution (sample #1) of 10 mM SOR-C27 was prepared in 90/10 H2O/D2O with 50 mM potassium phosphate buffer at pH 6.6. From sample #1, three additional samples were prepared: #2) stock solution with 200 mM NaCl, #3) stock solution with 100 mM dodecylphosphocholine (DPC) and #4) stock solution diluted to 2 mM with 100 mM sodium dodecylsulfate (SDS).

[3] = system: HEK-293 cells transfected with TRPV6; conditions: low doses; cited from earlier work
Source text: (§1) The link between tumor growth and over-expression of TRPV6 may involve the potentiation of calcium-dependent cell proliferation and inhibition of apoptosis. […] In the LNCaP prostate cancer cell line, up-regulation of TRPV6 augments proliferation and cell survival while retarding apoptosis through a mechanism that appears to involve activation of the nuclear factor of activated T-cell (NFAT) transcription ...

[4] = system: TRPV6; conditions: breast cancer cells; cited from earlier work
Source text: as §1

[5] = system: TRPV6 channels; conditions: cited from earlier work
Source text: Herein, we described the TRPV6 binding properties of SOR-C13 and SOR-C27 and the ability of these peptides to target human ovarian tumors in ...

[6] = Table 1; no reference given; cited from earlier work
Source text: Table 1 Amino acid sequences of parent soricidin (accession number P0C2P6), SOR-C27 and SOR-C13. | column: Activity

[7] = biological target: T2, SOR-C13 (soricidin C-terminal peptide) (Blarina brevicauda); assay: whole-cell patch clamp
T2 chain: KEFLHPSKVDLPR

[8] = biological target: T3, SOR-C27 (soricidin C-terminal peptide) (Blarina brevicauda); assay: whole-cell patch clamp
T3 chain: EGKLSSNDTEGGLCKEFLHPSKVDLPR

CC(C)C[C@H](NC(=O)[C@H](Cc1ccccc1)NC(=O)[C@H](CCC(=O)O)NC(=O)[C@@H](N)CCCCN)C(=O)N[C@@H](Cc1c[nH]cn1)C(=O)N1CCC[C@H]1C(=O)N[C@@H](CO)C(=O)N[C@@H](CCCCN)C(=O)N[C@H](C(=O)N[C@@H](CC(=O)O)C(=O)N[C@@H](CC(C)C)C(=O)N1CCC[C@H]1C(=O)N[C@@H](CCCNC(=N)N)C(=O)O)C(C)C [SOR-C13] (H-KEFLHPSKVDLPR-OH)
reduction of TRPV6 current amplitude ([1]; 83.5 nM, n = 9, mean ± SEM): 18±4.0% | reduction of TRPV6 current amplitude ([1]; 417.5 nM, n = 9, mean ± SEM): 22±4% | reduction of TRPV6 current amplitude ([1]; 835 nM, n = 7, mean ± SEM): 24±4% | reduction of TRPV6 current amplitude ([1]; 25 µM, n = 7, mean ± SEM): 25±5%

CC(C)C[C@H](NC(=O)[C@H](Cc1ccccc1)NC(=O)[C@H](CCC(=O)O)NC(=O)[C@@H](N)CCCCN)C(=O)N[C@@H](Cc1cnc[nH]1)C(=O)N1CCC[C@H]1C(=O)N[C@@H](CO)C(=O)N[C@@H](CCCCN)C(=O)N[C@H](C(=O)N[C@@H](CC(=O)O)C(=O)N[C@@H](CC(C)C)C(=O)N1CCC[C@H]1C(=O)N[C@@H](CCCNC(=N)N)C(=O)O)C(C)C [SOR-C13] (H-KEFLHPSKVDLPR-OH)
Kd [1]: 14 ± 1.3 nM

CC(C)C[C@H](NC(=O)CNC(=O)CNC(=O)[C@H](CCC(=O)O)NC(=O)[C@@H](NC(=O)[C@H](CC(=O)O)NC(=O)[C@H](CC(N)=O)NC(=O)[C@H](CO)NC(=O)[C@H](CO)NC(=O)[C@H](CC(C)C)NC(=O)[C@H](CCCCN)NC(=O)CNC(=O)[C@@H](N)CCC(=O)O)[C@@H](C)O)C(=O)N[C@@H](CS)C(=O)N[C@@H](CCCCN)C(=O)N[C@@H](CCC(=O)O)C(=O)N[C@@H](Cc1ccccc1)C(=O)N[C@@H](CC(C)C)C(=O)N[C@@H](Cc1c[nH]cn1)C(=O)N1CCC[C@H]1C(=O)N[C@@H](CO)C(=O)N[C@@H](CCCCN)C(=O)N[C@H](C(=O)N[C@@H](CC(=O)O)C(=O)N[C@@H](CC(C)C)C(=O)N1CCC[C@H]1C(=O)N[C@@H](CCCNC(=N)N)C(=O)O)C(C)C [SOR-C27] (H-EGKLSSNDTEGGLCKEFLHPSKVDLPR-OH)
reduction of maximum TRPV6 current amplitude ([1]; 65.2 nM, mean ± SEM): 17±4% | reduction of maximum TRPV6 current amplitude ([1]; 326 nM, mean ± SEM): 27±5% | reduction of maximum TRPV6 current amplitude ([1]; 652 nM, mean ± SEM): 31±5% | reduction of maximum TRPV6 current amplitude ([1]; 20 µM, mean ± SEM): 34±5% | Kd [1]: 65 ± 1 nM | IC50 ([1]; whole-cell patch clamp, 50 ms voltage ramp -110 to +90 mV, dose-response curve, mean ± SEM, b62/b63, read-out: IC50 (Kd) for reduction of TRPV6 current amplitude): 65 ± 1 nM | solubility [2]: completely soluble in all solutions and under all conditions

Clc1ccc(COC(Cn2ccnc2)c2ccc(Cl)cc2Cl)cc1 (stereo not drawn) [econazole]
effect on calcium inflow signals and cell proliferation [3]: reduced both calcium inflow signals and cell proliferation

CC/C(=C(\c1ccccc1)c1ccc(OCCN(C)C)cc1)c1ccccc1 [tamoxifen]
effect on TRPV6 expression and calcium signaling [4]: reduces expression of TRPV6 and calcium signaling

DCSQDCAACSILARPAELNTETCILECEGKLSSNDTEGGLCKEFLHPSKVDLPR [Soricidin]
inhibition of TRPV6 calcium channels / calcium uptake [5]: found to inhibit the transient receptor potential of vallinoid type 6 (TRPV6) calcium channels; also recorded: inhibit calcium uptake via TRPV6 channels | Activity [6]: Pain/ Cancer

B1: TRPV6 (protein)
chain: MGPLQGDGGPALGGADVAPRLSPVRVWPRPQAPKEPALHPMGLSLPKEKGLILCLWSKFCRWFQRRESWAQSRDEQNLLQQKRIWESPLLLAAKDNDVQALNKLLKYEDCKVHQRGAMGETALHIAALYDNLEAAMVLMEAAPELVFEPMTSELYEGQTALHIAVVNQNMNLVRALLARRASVSARATGTAFRRSPCNLIYFGEHPLSFAACVNSEEIVRLLIEHGADIRAQDSLGNTVLHILILQPNKTFACQMYNLLLSYDRHGDHLQPLDLVPNHQGLTPFKLAGVEGNTVMFQHLMQKRKHTQWTYGPLTSTLYDLTEIDSSGDEQSLLELIITTKKREARQILDQTPVKELVSLKWKRYGRPYFCMLGAIYLLYIICFTMCCIYRPLKPRTNNRTSPRDNTLLQQKLLQEAYMTPKDDIRLVGELVTVIGAIIILLVEVPDIFRMGVTRFFGQTILGGPFHVLIITYAFMVLVTMVMRLISASGEVVPMSFALVLGWCNVMYFARGFQMLGPFTIMIQKMIFGDLMRFCWLMAVVILGFASAFYIIFQTEDPEELGHFYDYPMALFSTFELFLTIIDGPANYNVDLPFMYSITYAAFAIIATLLMLNLLIAMMGDTHWRVAHERDELWRAQIVATTVMLERKLPRCLWPRSGICGREYGLGDRWFLRVEDRQDLNRQRIQRYAQAFHTRGSEDLDKDSVEKLELGCPFSPHLSLPMPSVSRSTSRSSANWERLRQGTLRRDLRGIINRGLEDGESWEYQI
Kd [7]: 14 nM | Kd [8]: 65 nM
